Test system: 233499-124-R-J3-PDC spheroids with HUVEC/MSC, viability
Experiment: Anticancer human tumor 233499-124-R-J3-PDC patient-derived colon adenocarcinoma cell line growth inhibition [PI3K]
Details: for IC50: curve of first compound; for viability, T/C: stronger effect = lower value
From the text: Combinatorial screen of targeted agents with the PI3K inhibitors inavolisib, alpelisib, duvelisib, and copanlisib in multi-cell type tumor spheroids
A high-throughput screen of multi-cell type tumor spheroids was designed to identify active combinations of targeted small molecules and PI3K pathway inhibitors. Complex spheroids include a stromal component modeled by human endothelial cells (HUVEC) and fibroblasts modeled by human mesenchymal stem cells (MSCs). The concentration ranges selected for each drug and investigational agent were based upon clinically achievable concentrations if the clinical Cmax of the agent was known.
Compounds. The drugs and investigational agents: inavolisib (NSC800729), alpelisib (NSC765974), duvelisib (NSC772469), copanlisib (NSC816437), ipatasertib (NSC767898), afuresertib (NSC778305), talazoparib (NSC767125), sapanisertib (NSC764658), selumetinib (NSC741078), tovorafenib (DAY101, NSC766906), vemurafenib (NSC761431), ravoxertinib (NSC781343), sotorasib (NSC818433), MRTX1133 (NSC 836407), abemaciclib (NSC 768073), palbociclib (NSC758247), venetoclax (NSC 766270), SY5609 (NSC837396), enzalutamide (NSC755605), and darolutamide (NSC825331), were obtained from the National Cancer Institute (NCI) Developmental Therapeutics Program Chemical Repository. The FDA-approved anticancer drug set is available from the NCI Developmental Therapeutics Program. […] The stock solutions were prepared in dimethyl sulfoxide (DMSO, Sigma-Aldrich, St. Louis, MO, cat. D2650) at 800-fold the tested concentration and stored at -70 degrees C prior to their use. All drugs and investigational agents were tested over a range starting from a high concentration at or near the clinical Cmax and decreasing in half-log increments. If the clinical Cmax for an agent had not been determined, the highest concentration tested was 10 microM.
Cell Culture. All cells were maintained in an incubator at 37 degrees C and 5% CO2 with 95% humidity. The PDC lines were cultured according to standard operating procedures established by the NCI PDMR (https://pdmr.cancer.gov/sops/default.htm). All PDCs were thawed and cultured in Matrigel-coated flasks prepared with a working solution of 1X Ham's F-12 nutrient mix, without supplementation (Invitrogen, Waltham, MA, cat. 11765054), 100 U/mL penicillin-streptomycin (Invitrogen, cat. 15140122), and 2.5% Matrigel (Corning Inc., Corning, NY, cat. 354248) for the first three passages. The 354836-022-R-J1-PDC, 475296-252-R-J1-PDC, and 997726-040-R-J2-PDC lines were cultured in 6A media, which includes advanced DMEM/F-12 (Thermo Fisher Scientific, cat. 12634028), 10 mM HEPES (Thermo Fisher Scientific, cat. 15630080), 1X GlutaMAX supplement (Thermo Fisher Scientific, cat. 35050061), 0.1 mg/mL primocin (InvivoGen, San Diego, CA, cat. ant-pm-2), 10% defined fetal bovine serum, heat inactivated (HyClone Laboratories Inc., Logan, UT, cat. SH30070.03HI), 50% L-WRN conditioned media (ATCC, cat. CRL-3276), 1.25 mM N-Acetyl-L-cysteine (Sigma-Aldrich, cat. A9165), 10 mM nicotinamide (Sigma-Aldrich, cat. N0636), 1X B-27 supplement (Thermo Fisher Scientific, cat. 17504044), 1X N-2 supplement (Thermo Fisher Scientific, cat. 17502048), and 10 microM Y-27632 dihydrochloride (Tocris Bioscience, Bristol, United Kingdom, cat. 1254). The 624824-186-R-J2-PDC line was cultured in 6C/Colon 1B media, which includes all 6A media components plus 50 ng/mL human EGF recombinant protein (Thermo Fisher Scientific, cat. PHG0311). […]

[1] = second compound 0.00316 µM, first compound 0.0316 µM
[2] = second compound 0.00316 µM, first compound 0.1 µM
[3] = second compound 0.01 µM, first compound 0.0316 µM
[4] = second compound 0.01 µM, first compound 0.1 µM
[5] = second compound 0.0316 µM, first compound 0.0316 µM
[6] = second compound 0.0316 µM, first compound 0.1 µM
[7] = second compound 0.1 µM, first compound 0.0316 µM
[8] = second compound 0.1 µM, first compound 0.1 µM
[9] = second compound 0.316 µM, first compound 0.0316 µM
[10] = second compound 0.316 µM, first compound 0.1 µM
[11] = second compound 1 µM, first compound 0.0316 µM
[12] = second compound 1 µM, first compound 0.1 µM
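Note: spheroids exposed to agents for seven days before readout.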
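Throughout, for viability, T/C: percent viability relative to DMSO vehicle control taken as 100%.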

CC(C)NCC(C(=O)N1CCN(c2ncnc3c2C(C)CC3O)CC1)c1ccc(Cl)cc1 (centres undefined) + CC(Nc1ccc2c(c1)OCCn1cc(N3C(=O)OCC3C(F)F)nc1-2)C(N)=O
IC50 (second compound 0.00316 µM): > 10000 nM | IC50 (second compound 0.01 µM): > 10000 nM | IC50 (second compound 0.0316 µM): > 10000 nM | IC50 (second compound 0.1 µM): > 10000 nM | IC50 (second compound 0.316 µM): > 10000 nM | IC50 (second compound 1 µM): 7250 nM | viability, T/C [1]: 53.2% | viability, T/C [2]: 98.8% | viability, T/C (second compound 0.00316 µM, first compound 0.316 µM): 74.7% | viability, T/C (second compound 0.00316 µM, first compound 1 µM): 96% | viability, T/C (second compound 0.00316 µM, first compound 3.16 µM): 94.2% | viability, T/C (second compound 0.00316 µM, first compound 10 µM): 50.3% | viability, T/C [3]: 96.7% | viability, T/C [4]: 102% | viability, T/C (second compound 0.01 µM, first compound 0.316 µM): 94.8% | viability, T/C (second compound 0.01 µM, first compound 1 µM): 96.2% | viability, T/C (second compound 0.01 µM, first compound 3.16 µM): 86.1% | viability, T/C (second compound 0.01 µM, first compound 10 µM): 71.1% | viability, T/C [5]: 89% | viability, T/C [6]: 84.9% | viability, T/C (second compound 0.0316 µM, first compound 0.316 µM): 89% | viability, T/C (second compound 0.0316 µM, first compound 1 µM): 86.1% | viability, T/C (second compound 0.0316 µM, first compound 3.16 µM): 81.2% | viability, T/C (second compound 0.0316 µM, first compound 10 µM): 76.8% | viability, T/C [7]: 87.7% | viability, T/C [8]: 86.2% | viability, T/C (second compound 0.1 µM, first compound 0.316 µM): 77.3% | viability, T/C (second compound 0.1 µM, first compound 1 µM): 51.9% | viability, T/C (second compound 0.1 µM, first compound 3.16 µM): 80.8% | viability, T/C (second compound 0.1 µM, first compound 10 µM): 58.6% | viability, T/C [9]: 72.2% | viability, T/C [10]: 83.2% | viability, T/C (second compound 0.316 µM, first compound 0.316 µM): 69.7% | viability, T/C (second compound 0.316 µM, first compound 1 µM): 67.5% | viability, T/C (second compound 0.316 µM, first compound 3.16 µM): 59.9% | viability, T/C (second compound 0.316 µM, first compound 10 µM): 79.5% | viability, T/C [11]: 49.2% | viability, T/C [12]: 40.3% | viability, T/C (second compound 1 µM, first compound 0.316 µM): 65.2% | viability, T/C (second compound 1 µM, first compound 1 µM): 68.7% | viability, T/C (second compound 1 µM, first compound 3.16 µM): 50.9% | viability, T/C (second compound 1 µM, first compound 10 µM): 36.4%

Cn1ncnc1[C@H]1c2n[nH]c(=O)c3cc(F)cc(c23)N[C@@H]1c1ccc(F)cc1 + CC(Nc1ccc2c(c1)OCCn1cc(N3C(=O)OCC3C(F)F)nc1-2)C(N)=O
IC50 (second compound 0.00316 µM): > 100 nM | IC50 (second compound 0.01 µM): 96.6 nM | IC50 (second compound 0.0316 µM): > 100 nM | IC50 (second compound 0.1 µM): > 100 nM | IC50 (second compound 0.316 µM): > 100 nM | IC50 (second compound 1 µM): 26.9 nM | viability, T/C (second compound 0.00316 µM, first compound 0.000316 µM): 86.6% | viability, T/C (second compound 0.00316 µM, first compound 0.001 µM): 109% | viability, T/C (second compound 0.00316 µM, first compound 0.00316 µM): 70% | viability, T/C (second compound 0.00316 µM, first compound 0.01 µM): 105% | viability, T/C [1]: 84.3% | viability, T/C [2]: 63.4% | viability, T/C (second compound 0.01 µM, first compound 0.000316 µM): 77.7% | viability, T/C (second compound 0.01 µM, first compound 0.001 µM): 111% | viability, T/C (second compound 0.01 µM, first compound 0.00316 µM): 88.3% | viability, T/C (second compound 0.01 µM, first compound 0.01 µM): 92.1% | viability, T/C [3]: 97% | viability, T/C [4]: 48.7% | viability, T/C (second compound 0.0316 µM, first compound 0.000316 µM): 92.6% | viability, T/C (second compound 0.0316 µM, first compound 0.001 µM): 81.9% | viability, T/C (second compound 0.0316 µM, first compound 0.00316 µM): 63.6% | viability, T/C (second compound 0.0316 µM, first compound 0.01 µM): 73.4% | viability, T/C [5]: 83.8% | viability, T/C [6]: 61.7% | viability, T/C (second compound 0.1 µM, first compound 0.000316 µM): 97.5% | viability, T/C (second compound 0.1 µM, first compound 0.001 µM): 92.3% | viability, T/C (second compound 0.1 µM, first compound 0.00316 µM): 83.3% | viability, T/C (second compound 0.1 µM, first compound 0.01 µM): 72.8% | viability, T/C [7]: 87.9% | viability, T/C [8]: 66.3% | viability, T/C (second compound 0.316 µM, first compound 0.000316 µM): 71.9% | viability, T/C (second compound 0.316 µM, first compound 0.001 µM): 94.2% | viability, T/C (second compound 0.316 µM, first compound 0.00316 µM): 75% | viability, T/C (second compound 0.316 µM, first compound 0.01 µM): 70.8% | viability, T/C [9]: 60.2% | viability, T/C [10]: 58.3% | viability, T/C (second compound 1 µM, first compound 0.000316 µM): 72.2% | viability, T/C (second compound 1 µM, first compound 0.001 µM): 58.1% | viability, T/C (second compound 1 µM, first compound 0.00316 µM): 58.3% | viability, T/C (second compound 1 µM, first compound 0.01 µM): 58.2% | viability, T/C [11]: 52.1% | viability, T/C [12]: 33%
